Assay results: patent US7658916B2, “Methods of enhancing lysosomal storage disease therapy by modulation of cell surface receptor density” (Genzyme Corporation, priority 2002, dated 2010)

How the values were obtained:
Settings in all cases: separate experiment, FIG. 9
Hep 3B cells = assay: Alpha-galactosidase uptake by Hep3B cells (hepatocytes) in vitro; format: cell-based
Protocol: Muscles are the major target tissues for enzyme replacement therapy of Pompe disease due to the lack of acid alpha-glucosidase. To determine if the M6P/IGF-II receptor-mediated lysosomal enzyme uptake pathway can be augmented by insulin/glucose, the effects of insulin/glucose were analyzed on induced muscle cells (myotubes) in vitro. L6 myoblasts (or induced myotubes) and Hep3B cells were cultured in 6-well dishes. Rat L6 myoblasts (ATCC# CRL-1458) were cultured at 37° C. under 5% CO2 in VitaCell DMEM media (ATCC# 30-2002) with 4 mM L-glutamine, 10% fetal bovine serum (Gibco #16000-044) and 1× penicillin/streptomycin. Once confluent, cells were switched to VitaCell DMEM plus 2% horse sera (Gibco# 26050-088) and 1× penicillin/streptomycin. Media were changed every 3 days and at day 9-10, myotubes could be observed as multinuclear tubes. About 30-40% of the myoblasts formed myotubes. Cells were used for uptake assay at day 10. Hep3B cells were grown in MEM-eagle (Gibco# 11960-044) with 10% FBS, 1×NEAA, 1× sodium pyruvate and 1× penicillin/streptomycin.
Before the uptake assay, the cells were washed once with PBS and once with DMEM minus glucose media (Gibco#11966-025), then the cells were starved in 1.5 ml of DMEM minus glucose media for 1 hour at 37° C. […]

normal fibroblast cells = assay: Alpha-galactosidase uptake by normal fibroblasts in vitro; format: cell-based, human
Protocol: Before the uptake assay, the cells were washed once with PBS and once with DMEM minus glucose media (Gibco#11966-025), then the cells were starved in 1.5 ml of DMEM minus glucose media for 1 hour at 37° C. […] The lysates were assay for alpha-galactosidase activity with 4-MU-galactoside (Sigma #M-7633) as substrate and normalized to protein content.
Human skin fibroblasts (ATCC# CRL-1502) were grown at 37° C. under 5% CO2 in MEM with Earle's balanced salts, 2× essential and non-essential amino acids (NEAA) (Gibco# 11130-051, 11140-050) and vitamin (Gibco# 1120-052), 20% fetal bovine serum (Gibco# 16000-044, not heat-inactivated) plus 1× penicillin/streptomycin. The pH of the media was adjusted to approximately 7 with sodium bicarbonate (Gibco #25080-094).

Fabry fibroblast cells = assay: Alpha-galactosidase uptake by Fabry fibroblasts in vitro; format: cell-based
Protocol: Before the uptake assay, the cells were washed once with PBS and once with DMEM minus glucose media (Gibco#11966-025), then the cells were starved in 1.5 ml of DMEM minus glucose media for 1 hour at 37° C. After starvation, the cells were switched to uptake media (DMEM with or without glucose, plus 4 mg/ml BSA, 2.5 mM beta-glycerophosphate (Sigma #G-6376), 25 mM Hepes, pH 6.8. Insulin (Calbiochem, #40769), M6P (Sigma # M-6876) and 2 μg/ml recombinant human alpha-galactosidase (as a model protein because of its better M6P phosphylation) were added as indicated in FIGS. 7A and 7B. Uptake of enzyme was continued for 4 hours at 37° C. After uptake, the cells were washed twice with PBS containing 1 mM M6P and once with PBS, then lysed in alpha-galactosidase assay buffer (50 mM sodium citrate, […]) plus 1% Triton X-100 and protease inhibitors. The lysates were assay for alpha-galactosidase activity with 4-MU-galactoside (Sigma #M-7633) as substrate and normalized to protein content.
Human skin fibroblasts (ATCC# CRL-1502) were grown at 37° C. under 5% CO2 in MEM with Earle's balanced salts, 2× essential and non-essential amino acids (NEAA) (Gibco# 11130-051, 11140-050) and vitamin (Gibco# 1120-052), 20% fetal bovine serum (Gibco# 16000-044, not heat-inactivated) plus 1× penicillin/streptomycin. […]

insulin: Insulin (Calbiochem, #40769)
about 200%: alpha-galactosidase uptake by Hep 3B cells increased to (Hep 3B cells) | alpha-galactosidase uptake by normal fibroblast cells increased to (normal fibroblast cells) | alpha-galactosidase uptake by Fabry fibroblast cells increased to (Fabry fibroblast cells)
